# Test results taken from US11339207B2, “Methods and compounds for the treatment or prevention of severe influenza” (priority 2016, dated 2022).
# Like-named read-outs stand apart in the source and are kept apart here.
# How the values were obtained:
# [1] = tested on: HUVECs stimulated with HBEC viral soup; type: cell-based, human; conditions: for levels of IP10 at higher drug concentrations: endothelial cells (HUVECs) stimulated with 70% HBEC viral soup, FIG. 10; for iMax IP10: maximal inhibition, HUVEC, HBEC viral soup, secreted IP10
# [2] = tested on: HSP27 phosphorylation in Peripheral Blood Mononuclear Cells (PBMCs); experiment: Western blotting of HSP27 phosphorylation in immune cells (PBMCs) after A549 viral soup; type: cell-based, human; conditions: pre-incubation, FIG. 8
# [3] = tested on: HSP27 phosphorylation in HUVEC cells; experiment: Western blotting of HSP27 phosphorylation in HUVEC cells after HBEC viral soup; type: cell-based, human; conditions: pre-incubation
# [4] = tested on: PBMCs plus granulocytes stimulated with A549 viral soup; type: cell-based, human; conditions: immune cells, pre-incubation, FIG. 8
# [5] = tested on: p38MAPK and HSP27 phosphorylation in A549 cells; experiment: Western blotting of p38MAPK and HSP27 phosphorylation in A549 cells after A549 viral soup; type: cell-based, human; conditions: FIG. 6
# [6] = tested on: influenza virus; conditions: 14% among controls, cited from earlier work
compound,measurement,setting,value
Selumetinib,levels of IP10 at higher drug concentrations,[1],appeared to increase levels of IP10
CC[C@H](C)C(=O)O[C@H]1C[C@H](O)C=C2C=C[C@H](C)[C@H](CC[C@@H](O)C[C@@H](O)CC(=O)O)[C@H]21 [Pravastatin],iMax IP10,[1],35%
COc1cc(F)c(F)c(Nc2ccc(I)cc2F)c1NS(=O)(=O)C1(C[C@H](O)CO)CC1 [Refametinib],levels of IP10 at higher drug concentrations,[1],appeared to increase levels of IP10
"Cc1cc(F)ccc1-c1nc(NC(CO)CO)nc2c1ccc(=O)n2-c1c(F)cccc1F [Dilmapimod, 8-(2,6-difluorophenyl)-2-(1,3-dihydroxypropan-2-ylamino)-4-(4-fluoro-2-methylphenyl)pyrido[2,3-d]pyrimidin-7-one]",induction of HSP27 phosphorylation by A549 viral soup,[2],dose dependently inhibit
same,induction of HSP27 phosphorylation by HBEC viral soup,[3],dose dependently inhibit
same,A549 viral soup induced release of CXCL8,[4],significantly attenuate
same,A549 viral soup induced release of IL-1-β,[4],significantly attenuate
same,A549 viral soup induced release of IL-6,[4],significantly attenuate
same,A549 viral soup induced release of TNFα,[4],significantly attenuate
same,induction of HSP27 phosphorylation by A549 viral soup,[5],dose dependently inhibit
same,induction of p38MAPK phosphorylation by A549 viral soup,[5],dose dependently inhibit
"CC[C@H]1OC(=O)[C@H](C)[C@@H](O[C@H]2C[C@@](C)(OC)[C@@H](O)[C@H](C)O2)[C@H](C)[C@@H](O[C@@H]2O[C@H](C)C[C@H](N(C)C)[C@H]2O)[C@](C)(O)C[C@@H](C)C(=O)[C@H](C)[C@@H](O)[C@]1(C)O [EM, erythromycin]",survival rate of the virus-infected mice at Day 20 of infection,[6]; 1.0 mg/kg/d,42%
same,survival rate of the virus-infected mice at Day 20 of infection,[6]; 3.3 mg/kg/d,57%
"CNC(=O)c1ccc(C)c(-n2c(C)cc(OCc3ccc(F)cc3F)c(Br)c2=O)c1 [PH797804, 3-[3-bromo-4-[(2,4-difluorophenyl)methoxy]-6-methyl-2-oxopyridin-1-yl]-N,4-dimethylbenzamide]",induction of HSP27 phosphorylation by A549 viral soup,[2],dose dependently inhibit
same,induction of HSP27 phosphorylation by HBEC viral soup,[3],dose dependently inhibit
same,A549 viral soup induced release of CXCL8,[4],significantly attenuate
same,A549 viral soup induced release of IL-1-β,[4],significantly attenuate
same,A549 viral soup induced release of IL-6,[4],significantly attenuate
same,A549 viral soup induced release of TNFα,[4],significantly attenuate
same,induction of HSP27 phosphorylation by A549 viral soup,[5],dose dependently inhibit
same,induction of p38MAPK phosphorylation by A549 viral soup,[5],dose dependently inhibit
same,iMax IP10,[1],88%
Nc1ccc2ncnc(NCCc3ccc(Oc4ccccc4)cc3)c2c1 [QNZ (EVP4593)],iMax IP10,[1],72%
